Test results published in patent publication US20220339135A1, “COMPOSITIONS AND METHODS FOR MODULATING AN INFLAMMATORY RESPONSE” (Enzychem Lifesciences Corporation, priority 2019, published 2022).
“And” between values parts separate entries of the source, which are not always exact repeats. Identical values can stand only once. Like-named read-outs stand apart in the source and are kept apart here.

Assays:
[1] = test system: NET formation of neutrophil, BALF derived cells; test: NETosis of PAK-introduced BALF derived cells; type: cell-based, mice; settings: PAK/PLAG vs PAK
Protocol: (§1) 2 hours after PAK infection, BALF derived cells were harvested and detected extracellular DNA-elastase complex by using ELISA and visualized by using confocal microscopy (×400) or scanning electron microscope (SEM) (×8000). […] were washed with PBS and mounted in DAPI-containing fluorescence microscopy mounting medium (Invitrogen). Samples were analyzed with a laser scanning confocal microscope (Carl Zeiss, Oberkochen, Germany).

5-FU-induced neutropenia = 5-FU-induced neutropenia in mice; type: in vivo; settings: for Mean Duration of Neutropenia in Days (±SE, range) / Mean the First Day Neutropenia (ANC <500 cells/μL) (±SE, range): 5-FU 100 mg/kg
Protocol: Male BALB/c mice (8 weeks of age) were randomly divided into 3 cohorts; control cohort (n=5), EC-18 125 mg/kg-treated cohort (n=5) and EC-18 250 mg/kg (n=5). The mice were intraperitoneally (i.p.) injected once with 100 mg/kg 5-FU to induce neutropenia, as shown in the experimental scheme (FIG. 46A). EC-18 was suspended in phosphate-buffered saline (PBS) and orally administrated at a dose of 125 or 250 mg/kg once a day, starting on the same day of 5-FU injection. The control cohort was administered PBS only during the experiment. The whole blood was collected from the orbital sinuses using EDTA-free capillary tubes (Kimble Chase Life Science and Research Products LLC, FL, USA) and collection tubes containing K3E-K3EDTA (Greiner Bio-One International, Kremsmünster, Austria). The blood cells were counted and classified by complete blood count (CBC) analysis using Mindray BC-5000 auto-hematology analyzer (Shenzhen Mindray Biomedical Electronics, Guangdong Sheng, China).
The results were expressed as the mean±standard deviation (SD). Statistical analysis was performed using a Student's paired t-test and p values <0.05 were considered statistically significant. A […] Log-rank (Mantel-Cox) test was used to compare the duration of neutropenia and time to recovery from neutropenia between control and EC-18-treated cohorts.

[2] = test system: NET formation of neutrophil, bone marrow-derived cells; test: NETosis of PAK-introduced bone marrow-derived cells; type: cell-based; settings: PAK/PLAG vs PAK
Protocol: as §1, with “bone marrow-derived” for “BALF derived”

[3] = test system: chemoradiation-induced oral mucositis
[4] = test system: TLR4/MD2 on the surface of Raw264.7 cells; test: LPS-induced TLR4/MD2 internalization, confocal microscopy; type: cell-based; settings: LPS/PLH compared to LPS treated cells
Protocol: Raw264.7 cells were divided into two groups: 1) LPS treated group and 2) LPS/PLAG treated group. For LPS treated group, cells were stimulated with LPS (100 ng/ml) for 0, 15, 30, 45, 60, 75, 90, 105, 120 minutes. For LPS/PLAG treatment, cells were pre-incubated with PLAG (100 μg/ml) for 1 hour and then stimulated with LPS (100 ng/ml) for 0, 15, 30, 45, 60, 75, 90, 105, 120 minutes. To detect TLR4/MD2 on the membrane surface, cells were fixed with 2% paraformaldehyde (Sigma-Aldrich) and were blocked with PBS containing 1% BSA (Gibco, Waltham, Mass., USA). They were incubated with rabbit anti-TLR4/MD2 antibody (Thermo) and Alexa488 conjugated anti-rabbit IgG (Invitrogen). For confocal microscopy analysis, cells were washed with PBS and mounted in DAPI-containing fluorescence microscopy mounting medium (Invitrogen). Samples were analyzed with a laser scanning confocal microscope (Carl Zeiss, Oberkochen, Germany).
Raw264.7 cells were divided into two groups: 1) LPS treated group and 2) LPS/PLAG treated group. […] These were analyzed by confocal microscopy. […]
To detect TLR4/MD2 on the membrane surface, cells were fixed with 2% paraformaldehyde (Sigma-Aldrich) and were blocked with PBS containing 1% BSA (Gibco, Waltham, Mass., USA). […] For confocal microscopy analysis, cells were washed with PBS and mounted in DAPI-containing fluorescence microscopy mounting medium (Invitrogen). […]

[5] = Day 9, ChemoRT + PLAG 250 mg/kg

Structure (SMILES): CCCCC/C=C\C/C=C\CCCCCCCC(=O)OC(COC(C)=O)COC(=O)CCCCCCCCCCCCCCC (racemic) [PLAG, 1-palmitoyl-2-linoleoyl-3-acetylglycerol]
- NET formation of neutrophil [1]: accelerated
- Mean Duration of Severe Neutropenia in Days (±SE, range) (5-FU-induced neutropenia; EC-18 125 mg/kg): 2 (6-7) Days
- Mean Number of Days to Recovery - ANC ≥ 500/μL (±SE, range) (5-FU-induced neutropenia; EC-18 125 mg/kg): 7.4 ± 0.55 (7-8) Days
- Mean Number of Days to Recovery - ANC ≥ 1000/μL (±SE, range) (5-FU-induced neutropenia; EC-18 125 mg/kg): 8 ± 1.22 (7-10) Days
- Number of Individuals of Severe Neutropenia (ANC <100 cells/μL) (5-FU-induced neutropenia; EC-18 125 mg/kg): 1/5
- Mean Duration of Neutropenia in Days (±SE, range) (5-FU-induced neutropenia; EC-18 125 mg/kg): 2.6 ± 0.55 (5-8) Days
- Mean the First Day Neutropenia (ANC <500 cells/μL) (±SE, range) (5-FU-induced neutropenia; EC-18 125 mg/kg): 5.8 ± 0.45 (5-6) days
- Nadir of ANC (5-FU-induced neutropenia; EC-18 125 mg/kg, 125 mg/kg): 236±4.47 cells/μL and 236 ± 121.57 cells/μL
- Mean Duration of Severe Neutropenia in Days (±SE, range) (5-FU-induced neutropenia; EC-18 250 mg/kg): 2 (6-7) Days
- Mean Number of Days to Recovery - ANC ≥ 500/μL (±SE, range) (5-FU-induced neutropenia; EC-18 250 mg/kg): 7.6 ± 0.55 (7-8) Days
- Mean Number of Days to Recovery - ANC ≥ 1000/μL (±SE, range) (5-FU-induced neutropenia; EC-18 250 mg/kg): 8.8 ± 1.09 (7-10) Days
- Number of Individuals of Severe Neutropenia (ANC <100 cells/μL) (5-FU-induced neutropenia; EC-18 250 mg/kg): 1/5
- Mean Duration of Neutropenia in Days (±SE, range) (5-FU-induced neutropenia; EC-18 250 mg/kg): 3.0 ± 0.71 (5-8) Days
- Mean the First Day Neutropenia (ANC <500 cells/μL) (±SE, range) (5-FU-induced neutropenia; EC-18 250 mg/kg): 5.8 ± 0.45 (5-6) days
- Nadir of ANC (5-FU-induced neutropenia; EC-18 250 mg/kg, 250 mg/kg): 158±11.32 cells/μL
- time of recovery to an ANC≥500 or 1000 cells/μL (5-FU-induced neutropenia; EC-18 125 and 250 mg/kg-treated cohorts): significantly reduced
- 5-FU-induced reduction of blood monocytes (5-FU-induced neutropenia; EC-18 125 or 250mpk): remarkably mitigated
- duration of severe neutropenia (5-FU-induced neutropenia; EC-18, dose not split in text): 2 days
- individuals that experienced severe neutropenia (ANC<100 cells/μL) (5-FU-induced neutropenia; both EC-18 125 and 250 mg/kg-treated cohorts): 20%
- NET formation of neutrophil [2]: accelerated
- body weight Day 9 ([3]; ChemoRT + PLAG 100 mg/kg): 23.98 ± 2.80 g
- oral mucosa epithelial thickness ([3]; ChemoRT + PLAG 100 mg/kg): 58.06±24.97 μm
- ulceration area percentage ([3]; ChemoRT + PLAG 100 mg/kg): 29.32±5.40%
- CXCL2 mRNA expression in tongues (relative band intensity) ([3]; ChemoRT + PLAG 250 mg/kg): 0.23±0.48 AU
- IL-6 in tongue tissue extracts ([3]; ChemoRT + PLAG 250 mg/kg): 8.13 ± 1.19 pg/mg
- IL-6 mRNA expression in tongues (relative band intensity) ([3]; ChemoRT + PLAG 250 mg/kg): 1.34±1.06 AU
- MIP-2 in tongue tissue extracts ([3]; ChemoRT + PLAG 250 mg/kg): 2.69 ± 0.38 pg/mg
- body weight Day 9 ([3]; ChemoRT + PLAG 250 mg/kg): 26.46 ± 1.68 g
- oral mucosa epithelial thickness ([3]; ChemoRT + PLAG 250 mg/kg): 85.81±12.24 μm
- ulceration area percentage ([3]; ChemoRT + PLAG 250 mg/kg): 1.45±2.36%
- P-MLKL relative band intensity in tongue lysates ([3]; ChemoRT+PLAG): 3.67±2.56 AU
- P-RIPK1 relative band intensity in tongue lysates ([3]; ChemoRT+PLAG): 0.61±0.45 AU
- P-RIPK3 relative band intensity in tongue lysates ([3]; ChemoRT+PLAG): 1.27±0.83 AU
- body weight Day 0 ([3]; ChemoRT+PLAG): 25.78 ± 1.04 g
- neutrophil infiltration in the tongues (IHC NIMP-R14) ([3]; ChemoRT+PLAG): not observed
- serum IL-6 [3, 5]: 205.75 ± 30.41 pg/mL
- serum MIP-2 [3, 5]: 4.42 ± 4.04 pg/mL
- HMGB1 localization in tongue (IHC) ([3]; PLAG-treated mice): remained in the nucleus
- body weight Day 9 ([3]; mouse, in vivo): 25.66 ± 0.70 g

Structure (SMILES): CCCCC/C=C\C/C=C\CCCCCCCC(=O)OC(CO)COC(=O)CCCCCCCCCCCCCCC (stereo not shown) [PLH, palmitic linoleic hydroxyl glycerol, reference compound]
- effect on TLR4/MD2 internalization and return to the surface [4]: had no effect
